Source: US20180111913A1, “SUBSTITUTED BENZOFURAN DERIVATIVES AS NOVEL ANTIMYCOBACTERIAL AGENTS” (priority 2015, published 2018)
Values after ≈ are worked out from the molar mass of the structure shown. Where two headings read alike, the source gives them in different places.

Key:
[1] = molecular target: Mtb Pks13-TE domain (wild-type) (Mycobacterium tuberculosis, UniProt I6X8D2); assay: biochemical; assay type: biochemical; conditions: for loss / decrease in inhibitory activity compared to compound I: relative to compound I
[2] = test system: Mtb strain mc^27000; assay: microbe, parasite or virus in culture; assay type: cell-based, Mycobacterium tuberculosis; conditions: for MIC: read-out: MIC
[3] = Pks13-TE, 20 μM 4-MUH, read-out: IC50
[4] = Mycobacterium tuberculosis, Mtb mc^27000, liquid medium, 96-well plates
[5] = Mtb mc^27000, liquid medium, 96-well plates
[6] = Mtb Pks13-TE domain, mean ± s.d. of triplicates, read-out: IC50
[7] = […], mean ± s.d. of triplicates, NI: no inhibition

Mtb Pks13-TE domain (wild-type), sequence (I6X8D2 1451-1733): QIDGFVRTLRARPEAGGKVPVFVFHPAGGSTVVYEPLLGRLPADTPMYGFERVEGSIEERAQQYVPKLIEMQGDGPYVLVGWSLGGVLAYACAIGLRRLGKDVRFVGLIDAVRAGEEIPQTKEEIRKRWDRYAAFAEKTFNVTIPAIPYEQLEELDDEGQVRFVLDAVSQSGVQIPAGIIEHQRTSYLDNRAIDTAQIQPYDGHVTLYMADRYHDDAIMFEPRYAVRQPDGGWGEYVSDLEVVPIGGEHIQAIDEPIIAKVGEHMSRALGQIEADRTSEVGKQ

## CCOC(=O)c1c(-c2ccccc2)oc2ccc(O)c(C)c12 [compound 12]
[1]; [3]
  IC50: > 20 µM
[2]; [4]
  MIC: 20 µM (≈ 5.93 µg/mL)

## CCOC(=O)c1c(-c2ccccc2)oc2ccc(O)c(CN3CCC(C)CC3)c12 [compound 1]
[2]; [4]
  MIC: 2.3 ± 0.2 µM (≈ 0.905 µg/mL)
[2]; Mycobacterium tuberculosis, […], mean ± s.d. of triplicates, NI: no inhibition
  MIC: 2.3 ± 0.2 µM (≈ 0.905 µg/mL)

## CC(C)NCCc1c(O)ccc2oc(-c3ccc(O)cc3)c(C(=O)N(C)C)c12 [compound 209]
[1]; [3]
  IC50: 1.8 µM
[2]; [5]
  MIC: 0.45 µM (≈ 0.172 µg/mL)

## CNC(=O)c1c(-c2ccc(O)cc2)oc2ccc(O)c(CN3CCC(CO)C3)c12 (stereo not drawn) [compound 122]
[1]; [3]
  IC50: 0.51 µM
[2]; [4]
  MIC: 1 µM (≈ 0.396 µg/mL)

## NC(=O)c1c(-c2ccc(O)cc2)oc2ccc(O)c(CN3CCCCC3)c12 [compound 125]
[1]; [3]
  IC50: 0.17 µM
[2]; [4]
  MIC: 1.3 µM (≈ 0.476 µg/mL)

## COC(=O)c1c(-c2ccccc2)oc2ccc(O)c(CCCN3CCCC3)c12 [compound 104]
[1]; [3]
  IC50: 2 µM
[2]; [4]
  MIC: 1.8 µM (≈ 0.683 µg/mL)

## CCOC(=O)c1c(-c2ccc(C(N)=O)cc2)oc2ccc(O)c(CN3CCCCC3)c12 [compound 60]
[1]; [3]
  IC50: 0.3 µM
[2]; [4]
  MIC: 3.5 µM (≈ 1.48 µg/mL)

## CCOC(=O)c1c(-c2ccccc2)oc2cc(O)cc(CCN)c12 [compound 136]
[1]; [3]
  IC50: > 20 µM
[2]; [5]
  MIC: 4 µM (≈ 1.3 µg/mL)

## CNC(=O)c1c(-c2ccc(F)cc2)oc2cc(O)cc(CCN[C@H](CO)Cc3cnc[nH]3)c12 [compound 261]
[1]; [3]
  IC50: 5 µM
[2]; [4]
  MIC: 5 µM (≈ 2.26 µg/mL)

## CCOC(=O)c1c(-c2ccccc2)oc2cc(CN3CCCCC3)cc(O)c12 [compound 36]
[2]; [4]
  MIC: 40 µM (≈ 15.2 µg/mL)

## CCOC(=O)c1c(-c2ccccc2)oc2ccc(O)c(Cc3ccccc3)c12 [compound 10]
[1]; [3]
  IC50: 11.9 µM
[2]; [4]
  MIC: 40 µM (≈ 14.9 µg/mL)

## O=S(=O)(Nc1ccc2oc(-c3ccccc3)cc2c1CN1CCC(N2CCCCC2)CC1)C(F)(F)F [compound 100]
[1]; [3]
  IC50: > 40 µM
[2]; Mycobacterium tuberculosis, at 20 μM, read-out: percentage inhibition observed (incomplete inhibition)
  inhibition at 20 µM: 6%

## CCOC(=O)c1c(-c2ccc(F)cc2)oc2cc(O)cc(CN3CCCCC3)c12 [compound 51]
[1]; [3]
  IC50: 0.8 µM
[2]; [5]
  MIC: >30 µM

## CNC(=O)c1c(-c2ccc(O)cc2)oc2ccc(O)c(CCCN3CCC3)c12 [compound 202]
[1]; [3]
  IC50: 1.6 µM
[2]; [4]
  MIC: 15 µM (≈ 5.71 µg/mL)

## CCOC(=O)c1c(-c2ccccc2)oc2cc(CN3CCCCC3)cc(OC)c12 [compound 35]
[2]; [4]
  MIC: 40 µM (≈ 15.7 µg/mL)

## CC[C@H](CO)NCCc1c(O)ccc2oc(-c3ccccc3)c(C(=O)NC)c12 [compound 234]
[1]; [3]
  IC50: 5.3 µM
[2]; [4]
  MIC: > 20 µM

## CNC(=O)c1c(-c2cccc(OC)c2)oc2ccc(O)c(CN3CCCCC3)c12 [compound 56]
[1]; [3]
  IC50: 0.4 µM
[2]; [5]
  MIC: 9.0 µM (≈ 3.55 µg/mL)

## CCOC(=O)c1c(-c2ccccc2)oc2cc(NC(C)=O)cc(CN3CCCCC3)c12 [compound 30]
[2]; [4]
  MIC: 20 to 27 µM (≈ 8.41 to 11.4 µg/mL)

## CCOC(=O)c1c(-c2ccccc2)oc2ccc(O)c(CCCCN3CCC3)c12 [compound 215]
[2]; [5]
  MIC: <0.08 µM

## CCOC(=O)c1c(-c2ccccc2)oc2cc(NC(C)=O)c(O)c(CN3CCCCC3)c12 [compound 28]
[1]; [3]
  IC50: 3.1 µM
[2]; [5]
  MIC: 20 µM (≈ 8.73 µg/mL)

## CNC(=O)c1c(-c2cccc(O)c2)oc2cc(O)cc(CN3CCCCC3)c12 [compound 89]
[1]; [3]
  IC50: 9 µM
[2]; [4]
  MIC: 1.2 µM (≈ 0.457 µg/mL)

## CCOC(=O)c1c(-c2ccc(O)cc2)oc2ccc(O)c(CCCN3CCC3)c12 [compound 201]
[1]; [3]
  IC50: 2.1 µM
[2]; [4]
  MIC: < 0.08 µM

## CC(C)N1Cc2cc(O)cc3oc(-c4ccccc4)c(c23)C1=O [compound 71]
[1]; [3]
  IC50: 9 µM
[2]; [4]
  MIC: > 20 µM

## CCOC(=O)c1c(-c2ccccc2)oc2ccc(O)c(CCCO)c12 [compound 107]
[2]; [4]
  MIC: > 20 µM

## CCOC(=O)c1c(-c2cccc(OC)c2)oc2ccc(O)c(CN3CCCCC3)c12 [compound 48]
[1]; [3]
  IC50: 0.36 µM
[2]; [4]
  MIC: 1.3 µM (≈ 0.532 µg/mL)

## CCOC(=O)c1c(-c2ccccc2)oc2cccc(CN3CCCCC3)c12 [compound 24]
[1]; [6]
  IC50: 2 ± 0.1 µM
[1]; [3]
  IC50: 2 µM
[1]
  loss / decrease in inhibitory activity compared to compound I: ~7 fold
[2]; [5]
  MIC: 16 µM (≈ 5.82 µg/mL)
[2]; [7]
  MIC: 16 µM (≈ 5.82 µg/mL)

## CCOC(=O)c1c(-c2ccc(O)c(F)c2)oc2ccc(O)c(CN3CCCCC3)c12 [compound 59]
[1]; [3]
  IC50: 0.29 µM
[2]; [4]
  MIC: 0.3 µM (≈ 0.124 µg/mL)

## CNC(=O)c1c(-c2ccccc2)oc2ccc(O)c(CCCN3CCC3)c12 [compound 200]
[1]; [3]
  IC50: 4.4 µM
[2]; [4]
  MIC: 0.6 µM (≈ 0.219 µg/mL)

## CCOC(=O)c1c(-c2ccccc2)oc2ccc(OC)c(Cc3ccccc3)c12 [compound 19]
[1]; [3]
  IC50: 50 µM
[2]; [4]
  MIC: 50 µM (≈ 19.3 µg/mL)

## CNC(=O)c1c(-c2ccc(O)cc2)oc2ccc(O)c(CNC3CCCC3)c12 [compound 128]
[1]; [3]
  IC50: 1 µM
[2]; [4]
  MIC: 1 µM (≈ 0.38 µg/mL)

## CCOC(=O)c1c(-c2ccccc2)oc2ccc(O)c(CCCN3CCC3)c12 [compound 165]
[1]; [3]
  IC50: 0.8 µM
[2]; [4]
  MIC: 0.08 µM (≈ 0.0304 µg/mL)

## CCOC(=O)c1c(-c2ccccc2)oc2ccc(O)c(CCN3CCCC3C(=O)O)c12 (stereo not drawn) [compound 244]
[1]; [3]
  IC50: > 40 µM
[2]; [4]
  MIC: 20 to 40 µM (≈ 8.47 to 16.9 µg/mL)

## CNC(=O)c1c(-c2cccnc2)oc2ccc(OC)c(CN3CCCCC3)c12 [compound 112]
[1]; [3]
  IC50: 35.8 µM
[2]; [4]
  MIC: > 40 µM

## CCOC(=O)c1c(-c2ccccc2)oc2ccc(O)c(CC3CCCCC3)c12 [compound 16]
[1]; [6]
  IC50: 19.6 ± 1.4 µM
[1]; [3]
  IC50: 19.6 µM
[1]; relative to test compound
  loss of inhibitory activity / higher IC50 against Pks13-TE compared to the test compound: > 70 fold
[2]; [5]
  MIC: 5.2 µM (≈ 1.97 µg/mL)
[2]; [7]
  MIC: 5.2 µM (≈ 1.97 µg/mL)

## CCOC(=O)c1c(-c2ccccc2)oc2ccc(O)c(CCN3CCCC(O)C3)c12 (stereo not drawn) [compound 151]
[1]; [3]
  IC50: 10 µM
[2]; [5]
  MIC: >20 µM

## CCOC(=O)c1c(-c2ccccc2)oc2ccc(OC)c(CN3CCCCC3)c12 [compound 23]
[1]; [6]
  IC50: 35.8 ± 2.2 µM
[1]; Pks13-TE, read-out: IC50 (unit inferred)
  IC50: ~36 µM
[1]
  loss / decrease in inhibitory activity compared to compound I: > 100 fold
[2]; [4]
  MIC: 35.8 µM (≈ 14.1 µg/mL)

## CNC(=O)c1c(-c2ccccc2)oc2ccc(O)c(CN3CCCC(CO)C3)c12 (stereo not drawn) [compound 135]
[1]; [3]
  IC50: 2 µM
[2]; [4]
  MIC: 0.5 µM (≈ 0.197 µg/mL)

## CNC(=O)c1c(-c2ccc(NC(C)=O)cc2)oc2ccc(O)c(CN3CCCCC3)c12 [compound 66]
[2]; [4]
  MIC: > 20 µM

## CC(C)NC(=O)c1c(-c2ccc(O)cc2)oc2ccc(O)c(CCCN3CCC3)c12 [compound 214]
[2]; [5]
  MIC: <0.08 µM

## CCOC(=O)c1c(-c2ccccc2)oc2ccc(O)c(CCCNCC(F)F)c12 [compound 218]
[2]; [5]
  MIC: 2.8 µM (≈ 1.13 µg/mL)

## O=C(c1c(-c2ccccc2)oc2ccc(O)c(CN3CCCCC3)c12)N1CCCCC1 [compound 43]
[1]; [3]
  IC50: 0.32 µM
[2]; [5]
  MIC: >10 µM

## CNC(=O)c1c(-c2ccccc2)oc2cccc(CN3CCCCC3)c12 [compound 33]
[1]; [3]
  IC50: 45 µM
[2]; [4]
  MIC: > 50 µM

## CNC(=O)c1c(-c2ccc(O)cc2)oc2ccc(O)c(CN3CCC(O)CC3)c12 [compound 120]
[1]; [3]
  IC50: 0.5 µM
[2]; [4]
  MIC: 4.2 µM (≈ 1.67 µg/mL)

## CNC(=O)c1c(-c2ccnc(O)c2)oc2cc(O)cc(CN3CCCCC3)c12 [compound 85]
[2]; [4]
  MIC: > 10 µM

## CCOC(=O)c1c(-c2ccccc2)oc2cc(Cc3ccccc3)c(O)cc12 [compound 11]
[2]; [4]
  MIC: 28 µM (≈ 10.4 µg/mL)

## CCOC(=O)c1c(-c2ccccc2)oc2ccc(O)c(CCO)c12 [compound 106]
[2]; [4]
  MIC: > 20 µM

## CNC(=O)c1c(-c2ccccc2)oc2ccc(O)c(CCN3CCCC3)c12 [compound 101]
[2]; [4]
  MIC: 3.3 µM (≈ 1.2 µg/mL)

## CNC(=O)c1c(-c2ccnc(OC)c2)oc2cc(O)cc(CN3CCCCC3)c12 [compound 87]
[2]; [4]
  MIC: 3.3 µM (≈ 1.31 µg/mL)

## CNC(=O)c1c(-c2ccccc2)oc2cc(O)cc(CNCCO)c12 [compound 96]
[2]; [4]
  MIC: 9 µM (≈ 3.06 µg/mL)

## CNC(=O)c1c(-c2ccccc2)oc2cc(O)cc(CN3CCOCC3)c12 [compound 94]
[2]; [4]
  MIC: > 20 µM

## CCOC(=O)c1c(-c2ccccc2)oc2ccc(O)c(CC(=O)NC3CCC3)c12 [compound 131]
[2]; [5]
  MIC: 7.2 µM (≈ 2.83 µg/mL)

## CNC(=O)c1c(-c2ccncc2)oc2cc(O)cc(CN3CCCCC3)c12 [compound 84]
[2]; [4]
  MIC: 6.1 µM (≈ 2.23 µg/mL)

## CCOC(=O)c1c(-c2ccccc2)oc2ccc(O)c(CCN3CCC(C)CC3)c12 [compound 149]
[2]; [4]
  MIC: 2.3 µM (≈ 0.937 µg/mL)

## CNC(=O)c1c(-c2ccccc2)oc2cc(O)cc(CNC3CCOCC3)c12 [compound 95]
[2]; [4]
  MIC: 8 µM (≈ 3.04 µg/mL)

## CNC(=O)c1c(-c2ccccc2)oc2cc(O)cc(CS(=O)(=O)NC)c12 [compound 83]
[2]; [4]
  MIC: > 20 µM

## CNC(=O)c1c(-c2ccccc2)oc2ccc(O)c(CCCNCc3nonc3C)c12 [compound 195]
[2]; [5]
  MIC: >40 µM

## CN(C)CCc1c(O)ccc2oc(-c3ccc(O)cc3)c(C(=O)N(C)C)c12 [compound 210]
[1]; [3]
  IC50: 12 µM

## CCOC(=O)c1c(-c2ccccc2)oc2ccc(O)c(CC(=O)N3CCCC3)c12 [compound 130]
[2]; [5]
  MIC: 4.1 µM (≈ 1.61 µg/mL)

## CNC(=O)c1c(-c2ccccc2)oc2ccc(O)c(CCN3CCNC(=O)C3)c12 [compound 139]
[1]; [3]
  IC50: > 40 µM
